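96-well plates; 48 h exposure; 5 concentrations. Endpoints by linear interpolation between flanking doses. Not reached: highest tested concentration assigned. TGI denotes the concentration required for complete inhibition of growth.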
What was measured:
Test in all cases: NCI anticancer screen, dose series, 48 h
SNB-75 CNS = test system: SNB-75 CNS
SW-620 colon = test system: SW-620 colon
KM12 colon = test system: KM12 colon
OVCAR-3 ovarian = test system: OVCAR-3 ovarian
MDA-N = test system: MDA-N
SF-268 CNS = test system: SF-268 CNS
NCI-H460 lung = test system: NCI-H460 lung
HOP-92 NSCLC = test system: HOP-92 NSCLC
HL-60(TB) leukemia = test system: HL-60(TB) leukemia
SK-MEL-5 melanoma = test system: SK-MEL-5 melanoma
NCI-H522 lung = test system: NCI-H522 lung
NCI-H226 lung = test system: NCI-H226 lung
HCC-2998 colon = test system: HCC-2998 colon
K-562 leukemia = test system: K-562 leukemia
A498 renal = test system: A498 renal
UO-31 renal = test system: UO-31 renal
SK-MEL-28 melanoma = test system: SK-MEL-28 melanoma
M14 melanoma = test system: M14 melanoma
RXF 393 renal = test system: RXF 393 renal
LOX IMVI melanoma = test system: LOX IMVI melanoma
HT29 colon = test system: HT29 colon
HCT-116 colon = test system: HCT-116 colon
UACC-257 melanoma = test system: UACC-257 melanoma
SN12C renal = test system: SN12C renal
ACHN renal = test system: ACHN renal
COLO 205 colon = test system: COLO 205 colon
TK-10 renal = test system: TK-10 renal
HOP-62 NSCLC = test system: HOP-62 NSCLC
MDA-MB-435 = test system: MDA-MB-435
SNB-19 CNS = test system: SNB-19 CNS
DU-145 prostate = test system: DU-145 prostate
SK-OV-3 ovarian = test system: SK-OV-3 ovarian
MCF7 breast = test system: MCF7 breast
CAKI-1 renal = test system: CAKI-1 renal
SK-MEL-2 melanoma = test system: SK-MEL-2 melanoma
CCRF-CEM leukemia = test system: CCRF-CEM leukemia
RPMI-8226 leukemia = test system: RPMI-8226 leukemia
MOLT-4 leukemia = test system: MOLT-4 leukemia
HCT-15 colon = test system: HCT-15 colon
SF-295 CNS = test system: SF-295 CNS
T-47D breast = test system: T-47D breast
MDA-MB-231 breast = test system: MDA-MB-231 breast
NCI-H23 lung = test system: NCI-H23 lung
MALME-3M melanoma = test system: MALME-3M melanoma
EKVX NSCLC = test system: EKVX NSCLC
U251 CNS = test system: U251 CNS
PC-3 prostate = test system: PC-3 prostate
SR leukemia = test system: SR leukemia
NCI/ADR-RES ovarian = test system: NCI/ADR-RES ovarian
A549 NSCLC = test system: A549 NSCLC
OVCAR-5 ovarian = test system: OVCAR-5 ovarian
786-0 renal = test system: 786-0 renal
HS 578T breast = test system: HS 578T breast
SF-539 CNS = test system: SF-539 CNS
UACC-62 melanoma = test system: UACC-62 melanoma

Compound: O=c1ssc2ncccc12
- TGI (SNB-75 CNS): 34.9 µM
- TGI (SW-620 colon): 43.6 µM
- TGI (KM12 colon): 48 µM
- TGI (OVCAR-3 ovarian): 35.6 µM
- TGI (MDA-N): 34.9 µM
- TGI (SF-268 CNS): 69.6 µM
- TGI (NCI-H460 lung): 52.3 µM
- TGI (HOP-92 NSCLC): > 100 µM
- TGI (HL-60(TB) leukemia): > 100 µM
- TGI (SK-MEL-5 melanoma): 25.9 µM
- TGI (NCI-H522 lung): 28.9 µM
- TGI (NCI-H226 lung): 7.65 µM
- TGI (HCC-2998 colon): 39.3 µM
- TGI (K-562 leukemia): > 100 µM
- TGI (A498 renal): > 100 µM
- TGI (UO-31 renal): 32 µM
- TGI (SK-MEL-28 melanoma): 42.5 µM
- TGI (M14 melanoma): 41.8 µM
- TGI (RXF 393 renal): 37.4 µM
- TGI (LOX IMVI melanoma): 35 µM
- TGI (HT29 colon): 53.6 µM
- TGI (HCT-116 colon): 40.1 µM
- TGI (UACC-257 melanoma): 50.4 µM
- TGI (SN12C renal): 28.8 µM
- TGI (ACHN renal): 31.9 µM
- TGI (COLO 205 colon): 34.8 µM
- TGI (TK-10 renal): > 100 µM
- TGI (HOP-62 NSCLC): 45.5 µM
- TGI (MDA-MB-435): 31.5 µM
- TGI (SNB-19 CNS): > 100 µM
- TGI (DU-145 prostate): > 100 µM
- TGI (SK-OV-3 ovarian): > 100 µM
- TGI (MCF7 breast): 33 µM
- TGI (CAKI-1 renal): > 100 µM
- TGI (SK-MEL-2 melanoma): 27.8 µM
- TGI (CCRF-CEM leukemia): > 100 µM
- TGI (RPMI-8226 leukemia): 40.5 µM
- TGI (MOLT-4 leukemia): > 100 µM
- TGI (HCT-15 colon): 27.4 µM
- TGI (SF-295 CNS): > 100 µM
- TGI (T-47D breast): > 100 µM
- TGI (MDA-MB-231 breast): 26.2 µM
- TGI (NCI-H23 lung): > 100 µM
- TGI (MALME-3M melanoma): 50.2 µM
- TGI (EKVX NSCLC): > 100 µM
- TGI (U251 CNS): 33.1 µM
- TGI (PC-3 prostate): > 100 µM
- TGI (SR leukemia): > 100 µM
- TGI (NCI/ADR-RES ovarian): > 100 µM
- TGI (A549 NSCLC): 39.7 µM
- TGI (OVCAR-5 ovarian): 55.1 µM
- TGI (786-0 renal): 38.2 µM
- TGI (HS 578T breast): > 100 µM
- TGI (SF-539 CNS): 70.5 µM
- TGI (UACC-62 melanoma): 24 µM
